These results are taken from US11547682B2, “Use of formin agonists in overcoming brain tumor radio- and chemo-resistance by targeting tumor microtubes” (The University of Toledo, priority 2019, dated 2023).

The test system of data set [1] is Pat9 HGG neurospheres. In words: 3D matrigel invasion assay of patient-derived HGG neurospheres (Pat9). The class given is cell-based, human. The note with it: within 24 h; for neurosphere invasion (change in area over T0): 10-50 μM at embedding, refreshed daily, maintained through 48 h, relative to controls. On the procedure:
Pat8 and Pat9 HGG neurospheres were embedded in matrigel and allowed to invade. […] Images were captured at embedding (T0) and every 24 h. Invasion area was calculated as increase in area over T0 Pat9 or Pat8 neurosphere areas (FIGS. 3A-3B, respectively). Both Pat9 and Pat8 neurospheres robustly invaded through 48 h, similar to control vehicle-treated neurospheres.
It was previously shown in U87 spheroids that IMM invasion blockade was reversible. Whether IMM anti-invasion effects were reversible was assessed (FIGS. 4A-4B). Pat9 neurospheres were incubated with vehicle or IMMs for 48 h. Drug washouts were then performed with drug-free media and invasion continued for 48 h. As before, IMM removal released invasion suppression relative to neurospheres held in IMMs for 96 h. The live-dead cell dye Draq7 was then used on invading neurospheres treated with IMMs. […] Unexpectedly, when started at 48 h post-invasion in B27-treated control invading neurospheres, IMM treatment for 48 h thereafter induced robust cell death (FIG. 4C).
(§1) Neurospheres formed spontaneously in isolated patient sample monolayer cells. Once spheres detach from monolayers, they were collected using wide-orifice pipette tips and moved to poly-HEMA (Sigma) coated U-bottom 96-well plates. Neurospheres were used upon reaching 200-250 μm diameter. Once neurospheres reached 350 μm, they were dissociated and re-plated in poly-HEMA U-bottom plates at 2000 cells/well.
3D invasion assays were as described. Briefly, a thin layer of 5 mg/ml GFR matrigel (Corning) was placed in 8-well chamber glasses (Lab-tek). Neurospheres were added and topped with thin-layer matrigel. Matrigel polymerized for 45 min at 37° C. before addition of 250 μl of media with IMMs. Invasions were imaged at time zero (T0) and every 24 h for experimental durations. Invaded spheroids/spontaneous neurospheres were imaged using an EVOS inverted microscope with an Olympus 4×UplanFL N0.13 PhP objective lens. All measurements were completed with MetaMorph software (Molecular Devices).

Data set [2] relates to Pat8 HGG neurospheres. In words: 3D matrigel invasion assay of patient-derived HGG neurospheres (Pat8). The note with it: 10-50 μM at embedding, refreshed daily, within 24 h, maintained through 48 h, relative to controls. Format: cell-based, human. On the procedure:
Pat8 and Pat9 HGG neurospheres were embedded in matrigel and allowed to invade. At embedding, neurospheres were treated with 10-50 μM IMM01 or IMM02 and refreshed daily. Images were captured at embedding (T0) and every 24 h. Invasion area was calculated as increase in area over T0 Pat9 or Pat8 neurosphere areas (FIGS. 3A-3B, respectively). Both Pat9 and Pat8 neurospheres robustly invaded through 48 h, similar to control vehicle-treated neurospheres.
as §1
3D invasion assays were as described. Briefly, a thin layer of 5 mg/ml GFR matrigel (Corning) was placed in 8-well chamber glasses (Lab-tek). Neurospheres were added and topped with thin-layer matrigel. Matrigel polymerized for 45 min at 37° C. before addition of 250 μl of media with IMMs. Invasions were imaged at time zero (T0) and every 24 h for experimental durations. Invaded spheroids/spontaneous neurospheres were imaged using an EVOS inverted microscope with an Olympus 4×UplanFL N0.13 PhP objective lens. […]

Data set [3] relates to U251 monolayers. Conditions: 2D U251 monolayers; cited from earlier work.
Data set [4] deals with tumor microtubes (TMs) in Pat9 neurospheres. In words: Tumor microtube (TM) formation and length in neurosphere edge cells (IF, Metamorph). Format: cell-based, human. The note with it: for tumor TM length upon drug washout: 50 μM. On the procedure:
FIGS. 6A-6E: Tumor microtube shortening and amoeboid cell morphologies in IMM-treated HGG patient-derived neurospheres. […] Left-most boxes indicate areas of magnification shown. Scale bar (upper panel)=25 μm; (lower panel 100 μm). FIGS. 6B-6C show tumor TM lengths were measured using Metamorph software from cell nuclei to tumor TM ends. TMs measured from N>196 cells across three replicate experiments. TMs were measured in control (FIG. 6B), or drug washout experiments using 50 μM IMM01 or IMM02 where m=maintained drug and r=washout (FIG. 6C). Data are shown as scatter plots in FIGS. 6B-6C, or histograms (FIGS. 6B′, 6C′). […] FIGS. 6D, 6D′ show cellular morphologies measured in neurosphere edge cells and EI were calculated by dividing cell long by short axes, where EI=1 is a rounded cell, and E>1 is an elongated cell. N>196 cells across three replicate experiments. Data are shown as scatter plots (FIG. 6D, 6E), or histograms (FIG. 6D′, FIG. 6E′).
FIG. 11: Tumor TM measurements in HGG patient neurospheres. Pat9 neurospheres invaded for 96 h in matrigel in the presence of DMSO, 50 μM IMM01, or 50 μM IMM02. Tumor TMs were measured using Metamorph software by drawing lines (colored lines) along the length of tumor TMs from cell bodies to the end of the tumor TM using brightfield images.
IF was performed on fixed Pat9 neurospheres treated with or without IMMs for 96 h (FIGS. 5A-5B, respectively). mDia1, mDia2, F-actin, β-tubulin, or de-tyrosinated β-tubulin (glu-tubulin) were visualized (to assess stabilized microtubules). Invaded control neurospheres had diffuse invasive fronts, with extensive symmetrical invasion away from the central neurosphere core. Both mDia1 and mDia2 were diffusely cytoplasmic. […] Some cells were enriched in traditional parallel lamellar actin stress fibers and others with numerous radial F-actin-enriched filopodia-like structures (FIG. 8). […]
Cell protrusions were confirmed by IF to robustly express punctate Connexin-43 (FIG. 6A). […] Tumor TM length was measured in neurosphere edge cells in IMM-treated Pat9 neurospheres. […]

The test system of data set [5] is mDia. The note with it: cited from earlier work.
Data set [6] concerns p53. Conditions: cited from earlier work.

Turning to `C/C(=N\NC(=S)NC(C)(C)C)c1cc(F)cc(F)c1O` [IMM02, N1-(tert-butyl)-2-[1-(3,5-difluoro-2-hydroxyphenyl)ethylidene]hydrazine-1-carbothioamide], the “neurosphere invasion (change in area over T0)” value in data set [1] and in data set [2] was “significantly halted invasion” in each case. Also, the “cell cycle progression, apoptosis/multi-nucleation” value in data set [3] is “neither changes in cell cycle progression, nor increases in apoptosis/multi-nucleation”. In addition, the “tumor TM length upon drug washout” value in data set [4] is listed as “recovered to controls”. In addition, in data set [5], the “mDia autoinhibition / F-actin polymerization” value is recorded as “relieved mDia autoinhibition to induce F-actin polymerization”.
For the molecule `O=C1NC(=S)N(c2cccc(Br)c2)C(=O)/C1=C/c1ccco1` [SMIFH2], in data set [6], the p53 expression result is listed as “downregulated p53 expression”.
Take `COC(=O)Nc1nc2ccc(C(=O)c3cccs3)cc2[nH]1` [nocadazole, nocodazole, reference compound]: in data set [1] (1 μM), the neurosphere invasion entry was “halted”. The “tumor TM formation” value in data set [4] (1 μM, within 24 h) is on record as “halted”.
`CC(C)(C)NC(=S)N/N=C/c1ccc(O)cc1O` [IMM01, 2-[(2,4-dihydroxyphenyl)methylene]-N-(1,1-dimethylethyl)-hydrazinecarbothioamide]: the “neurosphere invasion (change in area over T0)” value in data set [1] and in data set [2] was “significantly halted invasion” in each case. In addition, in data set [3], the “cell cycle progression, apoptosis/multi-nucleation” value was “neither changes in cell cycle progression, nor increases in apoptosis/multi-nucleation”. Further, the “tumor TM length upon drug washout” value in data set [4] is given as “recovered to controls”. In data set [5], the “mDia autoinhibition / F-actin polymerization” value was “relieved mDia autoinhibition to induce F-actin polymerization”.
